The record followed here is US10799603B2, “Kinase and/or phosphatase sensing via hydroxyquinoline-sensitized chelates” (Massachusetts Institute of Technology, priority 2018, dated 2020).

This test in a line: Eu(III) titration, time-resolved luminescence, determination of Eu(III) dissociation constants. The class given is binding. The conditions noted are these: 5 micromolar peptide, 30° C., 50 mM HEPES pH 7.5, 100 mM NaCl; averages of three separate experiments. How it is done: The luminescence experiments were conducted as follows. Time-resolved emission measurements were made with a CLARIOstar® spectrofluorimeter. The spectra were recorded between 410 and 700 nm, and all measurements were made using the following settings: excitation wavelength 360 nm; delay time 0.4 ms; stepwidth 1.0 nm; emission bandwidth 8 nm; gain: 3000; focal height […]; 20 flashes per well. All of the spectra were corrected for background luminescence by subtracting a blank scan of the solvent solution.
Determination of Eu(III) dissociation constants (KD). Eu(III) titrations were performed at 30° C. in a buffer containing 50 mM HEPES buffer, pH 7.5, 100 mM NaCl, and 5 micromolar of the of the phosphopeptide Sox-P (5 micromolar) or the corresponding unphosphorylated biosensor Sox-OH (5 micromolar) in a total volume of 200 microliters. Aliquots of EuCl3 stock solutions were added (for the final EuCl3 concentration in the well to be in the range of approximately 2.5-6000 micromolar) and the data was recorded in the fluorometer. Data were fit with the program GraFit 7. The reported values are averages of three separate experiments.

Square brackets hold non-standard residues; d marks the D form. Ends that are not written are not given here. * marks the point of attachment. Sox = hydroxyquinoline on cysteine, CN(C)S(=O)(=O)c1ccc(O)c2nc(C*)ccc12; pT = C[C@@H](OP(=O)(O)O)[C@H](N)C(=O)O

In general, Kd refers to a measure of binding affinity in units of concentration. Read a low Kd as a tighter complex. “LVEPLT*PC(Sox)GEA (LVEPL[pT]PC(Sox)GEA) [Sox-P, phosphopeptide with Sox hydroxyquinoline attached to the S of the cysteine]” registered a Kd of 18.4 µM.

Substance “LVEPLTPC(Sox)GEA [Sox-OH, unphosphorylated biosensor peptide with Sox hydroxyquinoline attached to the S of the cysteine]” registered a Kd of 1570 µM.
